{
  "source": "patent US5336673A",
  "about": "“3-substituted cephem compounds” (priority 1990, dated 1994)",
  "key": {"[1]": {"system": "β-lactamase producing strains such as Pseudomonas aeruginosa and Enterobacter cloacae", "assay": "Antibacterial activity against β-lactamase producing strains (summary in words)", "format": "cell-based", "method": "(§1) The antibacterial activity was determined by an Agar dilution method as described below.\n(§2) That is, the two-fold serial dilutions of the antibacterial compounds (1000 μg compound/ml) were prepared and dispersed in Muller Hinton Agar in a petri dish to a concentration of 100~0.002 μg/ml. The culture broths of standard test strains were inoculated on the medium to a concentration 10^7 CFU/ml, and incubated at 37° C. for 18 hours. The concentration of compounds(I) at which the strains were not grown was regarded as minimum inhibition concentration (MIC)."}, "[2]": {"system": "Pseudomonas aeruginosa 1592E", "assay": "Antibacterial activity, MIC by Agar dilution method, standard test strain 13", "format": "cell-based", "conditions": "10^7 CFU/ml, 37° C., 18 hours", "outline": "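Agar dilution MIC: two-fold serial dilutions (100~0.002 μg/ml) in Mueller Hinton agar, inoculated with P. aeruginosa 1592E at 10^7 CFU/ml and incubated 18 h at 37 °C. MIC is the lowest concentration with no growth.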"}, "Escherichia coli 1507E": {"system": "Escherichia coli 1507E", "assay": "Antibacterial activity, MIC by Agar dilution method, standard test strain 11", "format": "cell-based", "conditions": "Escherichia coli, 1507E, 18 h", "outline": "(§3)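 Two-fold serial dilutions were dispersed in Mueller Hinton agar at 100~0.002 μg/ml final and inoculated with 10^7 CFU/ml test strain. Plates were incubated 18 h at 37° C. MIC taken as the lowest compound concentration with no growth.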"}, "[3]": {"system": "Pseudomonas aeruginosa 1771", "assay": "Antibacterial activity, MIC by Agar dilution method, standard test strain 14", "format": "cell-based", "conditions": "10^7 CFU/ml, 37° C., 18 hours", "outline": "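Two-fold serial dilutions in Mueller Hinton agar at 100~0.002 μg/ml final, inoculated at 10^7 CFU/ml and incubated 37° C for 18 hours. MIC taken as lowest concentration with no growth.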"}, "Escherichia coli O 55": {"system": "Escherichia coli O 55", "assay": "Antibacterial activity, MIC by Agar dilution method, standard test strain 7", "format": "cell-based", "conditions": "Escherichia coli, O55, 18 h", "outline": "as §3"}, "Enterobacter cloacae": {"system": "Enterobacter cloacae", "assay": "MIC against clinically isolated strains", "format": "cell-based", "conditions": "20 clinical isolates", "method": "as §1, §2"}, "Pseudomonas I": {"system": "Pseudomonas I", "assay": "MIC against clinically isolated strains", "format": "cell-based", "conditions": "18 h, 19 clinical isolates", "method": "as §1, §2"}, "Enterococcus II": {"system": "Enterococcus II", "assay": "MIC against clinically isolated strains", "format": "cell-based", "conditions": "20 clinical isolates", "method": "as §1, §2"}, "D Streptococcus II": {"system": "D Streptococcus II", "assay": "MIC against clinically isolated strains", "format": "cell-based", "conditions": "18 h, 20 clinical isolates", "method": "as §1, §2"}, "D Streptococcus I": {"system": "D Streptococcus I", "assay": "MIC against clinically isolated strains", "format": "cell-based", "conditions": "18 h, 20 clinical isolates", "method": "as §1, §2"}, "Providencia rettgeri": {"system": "Providencia rettgeri", "assay": "MIC against clinically isolated strains", "format": "cell-based", "conditions": "18 h, 6 clinical isolates", "method": "as §1, §2"}, "Proteus vulgaris": {"system": "Proteus vulgaris", "assay": "MIC against clinically isolated strains", "format": "cell-based", "conditions": "18 h, 5 clinical isolates", "method": "as §1, §2"}, "[4]": {"system": "Pseudomonas aeruginosa 9027", "assay": "Antibacterial activity, MIC by Agar dilution method, standard test strain 12", "format": "cell-based", "conditions": "10^7 CFU/ml, 37° C., 18 hours", "outline": "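Agar dilution in Mueller Hinton agar with two-fold compound series at 100~0.002 μg/ml. Inoculum 10^7 CFU/ml, incubated 18 h at 37 °C. MIC is the lowest concentration without growth.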"}, "Acute toxcity test": {"assay": "Acute toxcity test", "conditions": "in vivo, male ICR-mouse, after 1 week", "method": "Further, in order to illustrate the usefulness of the compounds (I) as a drug, compounds of Examples 12, 18 and 36 were tested for acute toxcity by using 4 weeks-old male ICR-mouse as a test animal.\nthe compounds were dissolved in physiological saline and phosphate buffered solution (pH 7.0), or if they were […], suspended in carboxymethylcellulose or gum Arabic and then mixed with phosphate buffered solution.\nThe solution or mixture was administered to the tested animals intravenously or subcutaneously and, after 1 week, the number of surviving animals was calculated."}, "[5]": {"molecular_target": "T1, β-lactamase from Enterobacter cloacae P99 (Enterobacter cloacae, UniProt P05364)", "T1 construct": "directly isolated from Enterobacter cloacae P99, E. coli TEM and Citrobacter freundii; endogenous in cells; host or cells: Enterobacter cloacae P99", "T1 sequence (P05364 21-381)": "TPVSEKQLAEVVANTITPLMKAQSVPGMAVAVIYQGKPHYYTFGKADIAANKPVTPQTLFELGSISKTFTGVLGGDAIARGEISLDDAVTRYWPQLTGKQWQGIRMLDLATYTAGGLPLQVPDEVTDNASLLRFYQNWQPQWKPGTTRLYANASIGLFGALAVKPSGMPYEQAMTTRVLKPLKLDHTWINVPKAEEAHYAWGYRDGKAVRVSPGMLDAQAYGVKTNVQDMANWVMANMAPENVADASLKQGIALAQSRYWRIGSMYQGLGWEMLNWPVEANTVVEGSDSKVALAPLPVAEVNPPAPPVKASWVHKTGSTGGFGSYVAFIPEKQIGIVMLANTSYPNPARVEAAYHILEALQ", "assay": "Stability against β-lactamase, relative hydrolysis", "format": "biochemical", "conditions": "Enterobacter cloacae P99 enzyme; 100 μM; relative(percentage), Cephaloridine taken as 100; OD at 260 nm", "method": "The β-lactamases employed in the test were directly isolated from Enterobacter cloacae P99, E. coli TEM and Citrobacter freundii, and the antibiotics for comparison were Cephaloridine, Cephradine, Cefoperazone and Cefotaxime.\nThe relative hydrolysis of various compounds were calculated relative to the OD of Cephaloridine."}, "[6]": {"system": "Enterobacter cloacae 1321E", "assay": "Antibacterial activity, MIC by Agar dilution method, standard test strain 20", "format": "cell-based", "conditions": "Enterobacter cloacae, 1321E, 18 h", "outline": "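Two-fold serial compound dilutions in Mueller Hinton agar at 100~0.002 μg/ml, inoculated with 10^7 CFU/ml. Incubated 18 h at 37 °C. MIC is the lowest concentration with no growth.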"}, "Staphyloccus aureus 285": {"system": "Staphyloccus aureus 285", "assay": "Antibacterial activity, MIC by Agar dilution method, standard test strain 5", "format": "cell-based", "conditions": "10^7 CFU/ml, 37° C., 18 hours", "outline": "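Two-fold serial dilutions in Mueller Hinton agar (100~0.002 μg/ml final); strains inoculated at 10^7 CFU/ml and incubated 18 hours at 37° C. MIC taken as lowest compound concentration with no growth.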"}, "[7]": {"system": "Klebsiella aerogenes 1522E", "assay": "Antibacterial activity, MIC by Agar dilution method, standard test strain 18", "format": "cell-based", "conditions": "Klebsiella aerogenes, 1522E, 18 h", "outline": "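Agar dilution in Mueller Hinton agar with two-fold serial compound dilutions at 100~0.002 μg/ml; inoculum 10^7 CFU/ml, incubated 37° C for 18 hours. MIC taken as lowest concentration with no visible growth.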"}},
  "data": [
    {"smiles": "CON=C(C(=O)NC1C(=O)N2C(C(=O)[O-])=C(C[n+]3nn(N)c4ccccc43)CSC12)c1csc(N)n1", "note": "[Example 18, (6R,7R)-7-[(Z)-2-(2-aminothiazol-4-yl)-2-methoxyiminoacetamido]-3-[(1-aminobenzotriazol-3-ium)methyl]-ceph-3-em-4-carboxylate]", "values": [
      {"measurement": "antibacterial activity (in words)", "setting": "[1]", "result": "superior activity"},
      {"measurement": "MIC", "setting": "[2]", "result": 1.56, "unit": "µg/mL"},
      {"measurement": "MIC", "setting": "Escherichia coli 1507E", "result": 0.025, "unit": "µg/mL"},
      {"measurement": "MIC", "setting": "[3]", "result": 1.56, "unit": "µg/mL"},
      {"measurement": "MIC", "setting": "Escherichia coli O 55", "result": 0.007, "unit": "µg/mL"},
      {"measurement": "MIC Range", "setting": "Enterobacter cloacae", "result": "0.007 to 12.5", "unit": "µg/mL"},
      {"measurement": "MIC50", "setting": "Enterobacter cloacae; 18 h", "result": 0.025, "unit": "µg/mL"},
      {"measurement": "MIC90", "setting": "Enterobacter cloacae; 18 h", "result": 0.391, "unit": "µg/mL"},
      {"measurement": "MIC", "setting": "Pseudomonas I", "result": "0.195 to 12.5", "unit": "µg/mL"},
      {"measurement": "MIC50", "setting": "Pseudomonas I", "result": 1.56, "unit": "µg/mL"},
      {"measurement": "MIC90", "setting": "Pseudomonas I", "result": 6.25, "unit": "µg/mL"},
      {"measurement": "MIC Range", "setting": "Enterococcus II", "result": "0.004 to 25", "unit": "µg/mL"},
      {"measurement": "MIC50", "setting": "Enterococcus II; 18 h", "result": 0.025, "unit": "µg/mL"},
      {"measurement": "MIC90", "setting": "Enterococcus II; 18 h", "result": 0.098, "unit": "µg/mL"},
      {"measurement": "MIC", "setting": "D Streptococcus II", "result": "3.12 to 100", "unit": "µg/mL"},
      {"measurement": "MIC50", "setting": "D Streptococcus II", "result": 25, "unit": "µg/mL"},
      {"measurement": "MIC90", "setting": "D Streptococcus II", "result": 50, "unit": "µg/mL"},
      {"measurement": "MIC", "setting": "D Streptococcus I", "result": "3.12 to 100", "unit": "µg/mL"},
      {"measurement": "MIC50", "setting": "D Streptococcus I", "result": 12.5, "unit": "µg/mL"},
      {"measurement": "MIC90", "setting": "D Streptococcus I", "result": 100, "unit": "µg/mL"},
      {"measurement": "MIC", "setting": "Providencia rettgeri", "result": "0.007 to 0.195", "unit": "µg/mL"},
      {"measurement": "MIC50", "setting": "Providencia rettgeri", "result": 0.025, "unit": "µg/mL"},
      {"measurement": "MIC90", "setting": "Providencia rettgeri", "result": 0.098, "unit": "µg/mL"},
      {"measurement": "MIC", "setting": "Proteus vulgaris", "result": "0.025 to 0.195", "unit": "µg/mL"},
      {"measurement": "MIC50", "setting": "Proteus vulgaris", "result": 0.098, "unit": "µg/mL"},
      {"measurement": "MIC90", "setting": "Proteus vulgaris", "result": 0.195, "unit": "µg/mL"},
      {"measurement": "MIC", "setting": "[4]", "result": 3.12, "unit": "µg/mL"},
      {"measurement": "LD50 at 168 h", "setting": "Acute toxcity test; sc, Subcutaneous administration", "result": "> 6000", "unit": "mg/kg"},
      {"measurement": "LD50 at 168 h", "setting": "Acute toxcity test; Intravenous administration", "result": "> 4000", "unit": "mg/kg"},
      {"measurement": "Relative hydrolysis by β-lactamase", "setting": "[5]", "result": 0.0},
      {"measurement": "MIC", "setting": "[6]", "result": 0.007, "unit": "µg/mL"},
      {"measurement": "MIC", "setting": "Staphyloccus aureus 285", "result": 0.781, "unit": "µg/mL"},
      {"measurement": "MIC", "setting": "[7]", "result": 0.025, "unit": "µg/mL"}
    ]}
  ]
}
